This passage reports Activity results from ChEMBL document CHEMBL1157375, “Prospective randomized trial of empiric therapy with trimethoprim-sulfamethoxazole or doxycycline for outpatient skin and soft tissue infections in an area of high prevalence of methicillin-resistant Staphylococcus aureus” (2007).

In the experiment the test system is Staphylococcus aureus. Kind of experiment: Antimicrobial activity against methicillin-resistant Staphylococcus aureus infected patient with skin and soft tissue infection abscesses assessed as clinical failure rate at 100 mg, po twice daily for 7 days. It is filed as functional, organism-based.

Activity calls are given as the source filed them. The rule behind the calls is not given here.

For the compound `C[C@H]1c2cccc(O)c2C(=O)C2=C(O)[C@]3(O)C(=O)C(C(N)=O)=C(O)[C@@H](N(C)C)[C@@H]3[C@@H](O)[C@@H]21`, the result was Active.
